We go through 6 compounds from patent US6660530B2, “Methods for labeling β-amyloid plaques and neurofibrillary tangles” (The Regents of the University of California, priority 1998, dated 2003).

Entries after “also recorded” stand apart in the source; their conditions may differ.

The test system of data set [1] is β-amyloid plaques and neurofibrillary tangles. Put plainly: PET imaging of patients after intravenous [F-18]FDDNP. It counts as in vivo, human. How it is done: A patient was placed in a tomograph to obtain brain dynamic PET images. 8.0 mCi of 2-(1.1-dicyanopropen-2-yl)-6-(2-[^18F]-fluoroethyl)-methylamino)-naphthalene ([F18]FDDNP) (specific activity: 5-12 Ci/micromol; mass:˜1 nanomol), prepared as described in Example 1(f), were injected intravenously into the arm of the patient. Dynamic acquisition data of brain images were recorded simultaneously in forty-seven brain planes for two hours.
Labeling and detection of human β-amyloid plaques and neurofibrillary tangles in vivo were conducted using the following procedures. Ten human subjects, seven Alzheimer's diseased patients (ages 71 to 80) and three control patients (ages 62 to 82) were studied. The patients were positioned supine in an EXACT HR+962 tomograph (Siemens-CTI, Knoxville, Tenn.) with the imaging plane parallel to the orbito-meatal line. Venous catheterization was performed, and then [F-18]FDDNP (5-10 mCi) in human serum albumin (25%) was administered as a bolus via the venous catheter. Sequential emission scans were obtained beginning immediately after [F-18]FDDNP administration using the following scan sequence: six 30 second scans, four 3 minute scans, five 10 minute scans, and three 20 minute scans. Rapid venous blood sampling was performed via the indwelling catheter in two subjects for input function determination and plasma metabolite analysis.
The residence time shown is in reference to that in the pons, an area known to have limited involvement in Alzheimer's disease pathology. The residence time was calculated from the clearance rates of the tracer in affected regions of interest (ROI) and in the pons as:
Residence time=[1/clearance rate for affected ROI]−[1/clearance rate for pons]
Separate ROIs were defined in entorhinal cortex, hippocampus, lateral temporal cortex and pons. The region with the slowest clearance rate was used as the affected ROI in the calculation of the residence time shown in FIG. 4.

Data set [2] has the same test system. In words: In vitro fluorescence labeling of Alzheimer's disease brain tissue sections. It counts as binding, human. The settings on record: for visualization of neurofibrillary tangles, amyloid peptides and diffuse amyloid: all Alzheimer's disease brain specimens, fluorescence; for fluorescent labeling of amyloid plaques: sections of Alzheimer's disease patient brain, fluorescence microscope. How it is done: (§1) A 2.1 mg/mL DDNP stock solution was prepared, which was adjusted to 8 mM in 100% ethanol. A DDNP working solution was prepared by diluting the stock solution with distilled water in a ratio of 1:100-1000 (stock solution:distilled water).
(§2) β-amyloid 250 μM (1.25 mg/mL in distilled water) was aggregated at 37° C. for 48 hours. 5 μL were smeared on slides, air-dried and then rehydrated with distilled water. Alternatively, Aβ-positive brain tissue sections were rehydrated with distilled water. DDNP working solution was applied to each slide for 30 minutes at room temperature. The slides were washed three times for five minutes with distilled water. The slides were coverslipped with fluorescent protectant mounding media (Vectashield™, available Vector Labs., Burlingame, Calif.) and observed under a fluorescence microscope with a thioflavin S or FITC filter.
Since DDNP and its derivatives are fluorescent, an evaluation of the ability of [F-18]FDDNP to label β-amyloid plaques and neurofibrillary tangles in vitro was also performed with the same brain specimens.
In FIG. 5, the central image was obtained by immunostaining a forty five micrometer cryostate temporal cortex section of an Alzheimer's disease patient incubated with AT8 (anti-phosphotau) and 10G4 (anti-AB1-15) at 1:800. Insets are adjacent sections of the same Alzheimer's disease brain specimen stained with FDDNP. Images were generated using fluorescent scanning microscopy. Green arrows indicate approximate origin of inset with reference to central immunostaining section.

Data set [3] has the same test system. In words: In vitro autoradiography with brain specimens of Alzheimer diseased patients. It counts as binding, human.
Data set [4] deals with amyloid plaques in Alzheimer's brain (Homo sapiens, UniProt P05067). The settings on record: cited from earlier work.
amyloid plaques in Alzheimer's brain, sequence (P05067 672-713 limits assumed): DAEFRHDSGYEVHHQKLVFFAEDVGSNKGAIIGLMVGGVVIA
In data set [5] the target is T1, aggregated β-amyloid 1-40 injected into rat cortex (Homo sapiens, UniProt P05067).
T1 construct: an aliquot of β-amyloid 1-40 was allowed to aggregate
T1 sequence (P05067 672-711 limits assumed): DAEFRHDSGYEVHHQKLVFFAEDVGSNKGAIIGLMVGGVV
Put plainly: In vivo labeling of aggregated β-amyloid injected into rat cortex. How it is done:
β-amyloid 250 μM (1.25 mg/mL in distilled water) was aggregated at 37° C. for 48 hours to produce fibrils confirmed by smears. Three rats were anesthetized. 3 μL of a solution of Aβ fibrils (1.25 μg/μL) were injected unilaterally into the cortex of each rat (Bregma 0, AP-4.1 mm, ML+2.0 mm, DV-3.1 mm). Then 3 μL of phosphate buffered saline (PBS) were injected into the contralateral side of each rat brain as a vehicle control. After injection, the needle remained for 5 minutes to prevent reflux, and then the cranial hole was sealed with bone wax. […]
[…] Additional immersion fixation of rat brain was at 4° C. overnight with PLP fixative. The rat brains were washed with PBS, saturated in 10 and 20% sucrose, and snap frozen in chilled isopentane (−70° C.) with liquid nitrogen. The brains were cryostat sectioned at […] around the needle-track and directly coverslipped with glycerol and fluorescence protectant (Vectashield™).

Data set [6] is described as follows: Storage of stock solution in the freezer. It counts as physicochemical. The settings on record: stock in 100% ethanol, used at 1/100 to 1/1,000 dilutions. How it is done: as §1
In data set [7] the target is T2, plaque in Tg2576 HuAPPsw transgenic mouse brain (Homo sapiens, UniProt P05067).
T2 construct: from tissue; host or cells: brain section of Tg2576 HuAPPsw transgenic mouse
T2 sequence (P05067 672-713 limits assumed): as the sequence (P05067 672-713 limits assumed) above
Put plainly: In vitro fluorescence labeling of transgenic mouse brain section. It counts as binding. How it is done:
as §2, with “A 2.1 mg/mL DDNP stock solution was prepared, which was adjusted to 8 mM in 100% ethanol. A DDNP working solution was prepared by diluting the stock solution with distilled water in a ratio of 1:100-1000 (stock solution:distilled water). β-amyloid” for “β-amyloid”, “(VectashieldTM,” for “(Vectashield™,”

Data set [8] concerns the target T3, β-amyloid 1-40 (Homo sapiens, UniProt P05067).
T3 construct: an aliquot of β-amyloid 1-40 was allowed to aggregate
In words: Labeling of aggregated β-amyloid dried onto a slide. It counts as binding. To be noted: aggregated 8 days at 37° C., dried onto gelatin coated slide. How it is done: […] 5 μL were smeared on slides, air-dried and then rehydrated with distilled water. Alternatively, Aβ-positive brain tissue sections were rehydrated with distilled water. DDNP working solution was applied to each slide for 30 minutes at room temperature. The slides were washed three times for five minutes with distilled water. The slides were coverslipped with fluorescent protectant mounding media (Vectashield™, available Vector Labs., Burlingame, Calif.) and observed under a fluorescence microscope with a thioflavin S or FITC filter.

Data set [9] is described as follows: Standing of the free base at room temperature after neutralization (TLC). It counts as physicochemical. To be noted: light yellow oil after NaHCO3 wash. How it is done:
Dichloromethane (10 mL) was added and the solution was washed with saturated NaHCO3 solution, dried, and evaporated in vacuo. A light yellow oil was obtained, which, on standing at room temperature, turned dark red. […] Selected ^1H NMR signals after neutralization: δ2.72 (s, 3H, CH3), 3.09 and 3.35 (t, J=5 Hz, 8H, piperazine), 7.08 (s, 1H, 5-H), 8.02 (s, 1H, 1-H).

T3 sequence (P05067 672-711 limits assumed): as the sequence (P05067 672-711 limits assumed) above

Turning to `CC(=C(C#N)C#N)c1ccc2cc(N(C)CC[18F])ccc2c1` [[F-18]FDDNP], the “estimated residence time in reference to pons” value in data set [1] (Alzheimer's diseased patients vs control patients, affected ROI with slowest clearance rate) is “different from values in control patients”. Further, the “labeling of brain structures / accumulation of label” value in data set [1] (human patient, 8.0 mCi intravenously, dynamic PET for two hours) is “labels brain by structures in a manner consistent with the presence of beta amyloid plaques and neurofibrillary tangles; also recorded: maximum accumulation”. Moreover, the “regional clearance from brain” value in data set [1] (human, brain areas known to accumulate β-amyloid plaques and neurofibrillary tangles) was “slower clearance”. Further, in data set [1] (human, intravenous injection), the “crossing of the blood brain barrier” value was “crosses the blood brain barrier readily in proportion to blood flow”. In data set [1] (human, most cases, even patients with low severity of symptoms), the “retention of activity in hippocampus-amygdala-entorhinal cortex” value is recorded as “high retention”. In addition, the “visualization of neurofibrillary tangles, amyloid peptides and diffuse amyloid” value in data set [2] was “excellent visualization”. Besides, in data set [2] (temporal cortex sections of an Alzheimer's disease patient, fluorescent scanning microscopy), the “structures stained (FIG. 5 insets)” value is “(1) neuritic plaques, (2) diffuse plaque, (3) vascular amyloid, (4) dense plaques and tangles, and (5) dense tangles”. Moreover, the “binding / distribution of activity in autoradiography” value in data set [3] was “Binding was observed in hippocampus, temporal and parietal cortex”.

Turning to `O=C(O)c1cc(/N=N/c2ccc(-c3ccc(/N=N/c4ccc(O)c(C(=O)O)c4)cc3)cc2)ccc1O` [Chrysamine G], in data set [4], the “ability to label amyloid plaques in Alzheimer's brain” value was “weak”.

For orientation: melting point means the temperature, or range, at which the solid turns liquid. Take `CC(=C(C#N)C#N)c1ccc2cc(N(C)C)ccc2c1` [DDNP, 2-(1,1-dicyanopropen-2-yl)-6-dimethylaminonaphthalene]: the melting point is 154.5 to 155 °C. Moreover, in data set [2], the “visualization of neurofibrillary tangles, amyloid peptides and diffuse amyloid” value is given as “excellent visualization”; the “fluorescent labeling of amyloid plaques” value is “able to label amyloid plaques; also recorded: readily labeled amyloid deposits; also recorded: amyloid plaques labeled; also recorded: strong; also recorded: labeling of a single, large plaque with an amyloid core”. The “fluorescent labeling of tangles” value in data set [2] (cortex of the brain of an Alzheimer's disease patient) was “weak”. Besides, the “fluorescent labeling after formic acid treatment of section through the injection site” value in [5] (rat) is given as “removes fluorescent labeling”. Besides, in [5] (rat, 100 μL of 640 μM DDNP into the carotid artery, sacrificed after 20 minutes, brain cryosections), the “in vivo fluorescent labeling of injected amyloid” value was “fluorescently labeled amyloid at the tip of the need track”. In [5] (rat, side where no amyloid is present), the “labeling contralateral to the amyloid injection site” value is listed as “weak”. The “passage of the blood brain barrier” value in [5] (rats) was “passes the blood brain barrier”. The “stability of stock solution” value in [6] was “can be kept in the freezer for six months and still produce acceptable results”. Further, the “fluorescent labeling of plaque” value in data set [7] was “labeling of a plaque”. Moreover, in [8], the “fluorescence of labeled aggregated β-amyloid 1-40” value is on record as “fibrillar fluorescence consistent with amyloid”.

Regarding `CC(=C(C#N)C#N)c1ccc2cc(N3CCNCC3)ccc2c1` [2-[1-(6-piperazino-2-naphthyl)ethylidene]malononitrile], the “stability on standing at room temperature” value in [9] is on record as “decomposition”.

As to `CC(=O)c1ccc2cc(N3CCN(C(=O)OC(C)(C)C)CC3)ccc2c1` [Example 1(d), tert-Butyl-4-(6-acetyl-2-naphthyl)-1-piperazinecarboxylate], the melting point fell in the range of 153 to 154 °C.

Take Thioflavin S [reference compound]: the “fluorescent labeling of amyloid plaques” value in data set [2] is “labeling of a cored plaque”.
